Counter-ions that a name gives are not always drawn. Like-named read-outs stand apart in the source and are kept apart here.
How the values were obtained:
[1] = system: Rat arteries (arterial contractions, entry of calcium ions into the cells of smooth muscles); experiment: In vitro anticalcic activity (inhibition of potassium-depolarized, calcium-induced contractions of isolated rat arteries); assay type: cell-based; details: dose inhibiting by 50% the contractions caused by potassium ions (100 mM), 37° C., read-out: CI50 (the source's name)
Method: Rat arteries decoupled in a spiral were attached to a tension collector and were maintained in tanks containing 2.5 ml of Krebs-sodium bicarbonate buffer (NaCl: 120.8 mM, KCl: 5.9 mM, MgCl2 : 1.2 mM, NaH2 PO4 : 1.2 mM, NaHCO3 : 15.5 mM, glucose: 12.6 mM), at 37° C. covered with a 95%-5% oxygen-carbon dioxide mixture. The preparations were depolarized with a buffered solution containing 100 mM of potassium ions (NaCl: 26.7 mM, KCl: 100 mM, MgCl2 : 1.2 mM, NaH2 PO4 : 1.2 mM, NaHCO3 : 15.5 mM, glucose 12.6 mM).
A volume of 25 μl of calcium chloride was added to the mixture in a manner to obtain a range of increasing concentrations of calcium ions from 0.1 to 3.0 mM and the contractions of the artery were measured to obtain a control. The operation with range of calcium ions was repeated every 15 minutes and the preparation was washed 4 times after each range. When a stable response was obtained, the operation with the range of calcium ions was effected in the presence of varying concentrations of test compounds until a stable response was obtained.
The arterial contractions depend on the entry of calcium ions into the cells of smooth muscles and are provoked by depolarization of smooth muscles by potassium ions and by action of noradrenaline freed by presynapthic level. By recommencing the operation with denerved arteries by the action of 6-hydroxy-dopamine, the specific action due to noradrenaline is suppressed.

[2] = system: cardiac rhythm troubles in guinea pigs; experiment: Antiarythmic action (K-strophanthine and adrenaline induced cardiac rhythm troubles); assay type: in vivo, guinea pig; details: Cavia porcellus, 1 h, oral 10 mg/kg, one hour before K-strophanthine and adrenaline perfusion, read-out: Percentage of protection (lengthening of the time of appearance of cardiac rhythm troubles as compared to controls)
Method: Male guinea pigs weighing between 450 and 500 g were tracheotomized while anesthesized by intraperitoneal administration of […] of urethane and were subjected to artifical respiration of 40 to 50 breaths of 5 ml per minute. Needles were subcutaneously implanted to register an electrocardiogram of the guinea pigs for the signal of D II derivation. The test products were orally administered and one hour later, the jugular vein of the guinea pigs were perfused with 0.5 ml per minute of a solution of 150 γ/ml of K-strophanthine and 0.5 ml per minute of a solution of 5 γ/ml of adrenaline and the number of times of the appearance of cardiac rhythm troubles was noted. The results are expressed in percentage of protection with an oral dose of 10 mg/kg of test product that is to say the percentage of lengthening of the time of appearance of cardiac rhythm troubles as compared to the controls.

α1 adrenergic receptors = experiment: Affinity for α1 adrenergic receptors (3H prazosine displacement, rat brain); assay type: binding; details: relative to phentolamine (ARL=100×(CB/CX)), 25° C., pH 7.7
Method: After centrifugation at 30,000 g for 15 minutes at 0° to 4° C., the culot was suspended in 240 ml of buffer Tris HCl 50 mM (pH-7.7) and the suspension was centrifuged at 30,000 g for 20 minutes at 0° to 4° C. The new culot was suspended in 480 ml of buffer Krebs Tris HCl (pH of 7.7-50 mM) and 2 ml of the suspension in the presence of 3H prazosine at a concentration of […] alone and with increasing concentrations of the test compound or with non-radioactive phentolamine at a concentration of 10^-5 M to determine the non-specific fixation was incubated at 25° C. for 30 minutes.
The incubated suspensions were filtered through Whatman FG/C and the filtered were washed with 3 times with 5 ml of buffer Krebs Tris HCl-pH of 7.7 at 0° to 4° C. The radioactivity of the filters was measured by liquid scintillation and the affinity of the test compound for α1 adrenergic receptors was compared relative to phentolamine as the reference compound by the formula
CD=concentration of phentolamine inhibiting by 50% the specific fixation of 3H prazosine.
CX=concentration of test product inhibiting by 50% the specific fixation of 3H prazosine.

β1 adrenergic receptors = target: T1, β1 adrenergic receptors (Rattus norvegicus, UniProt P18090); experiment: Affinity for β1 adrenergic receptors (3H dihydroalprenolol displacement, rat brain cortex); assay type: binding; details: relative to propranolol, 37° C., pH 7.7
T1 construct: 10 cortexes removed from the brains of male rats weighing an average of 150 g; from tissue; host or cells: cerebral cortex of male rats (membranes)
Method: The test was inspired by that of Mohler et al [Science, Vol. 198 (1977), p. 849-851] and 10 cortexes removed from the brains of male rats weighing an average of 150 g were homogenized in 90 ml of 0.32M of sucrose. After centrifuging the homogenized mixture at 1000 g for 20 minutes at 0° C., the surnageant was centrifuged at 30,000 g for 15 minutes at 0° to 4° C. The culot was suspended in 120 ml of buffer Tris HCl 50 mM with a pH of 7.7 and was centrifuged at 30,000 g for 15 minutes at 0° to 4° C. The resulting culot was suspended in 480 ml of buffer Krebs Tris HCl (50 mM-pH of 7.7) and 2 ml of the suspension in the presence of 3H dihydroalprenolol at a concentration of 10^-9 M alone and with increasing concentrations of the test compound or with non-radioactive propranolol at a concentration of 10^-5 M to determine the non-specific fixation was incubated at 37° C. for 10 minutes.
The incubated suspensions were filtered through Whatman GF/C and the filters were washed 3 times with 5 ml of buffer Krebs Tris HCl (pH-7.7) at 0° C. The radioactivity of the filters was measured by liquid scintillation and the affinity of the test compounds for β1 -adrenergic receptors was compared using propranolol as a standard as in Test D. The results are reported in Table VI.

β2 -adrenergic receptors = target: T2, β2 -adrenergic receptors (Rattus norvegicus, UniProt P10608); experiment: Affinity for β2 adrenergic receptors (3H dihydroalprenolol displacement, rat cerebellum); assay type: binding; details: relative to propranolol, 37° C., pH 7.7
T2 construct: cerebellums of male rats weighing an average of 150 g; from tissue; host or cells: cerebellum of male rats (membranes)
Method: The technique was inspired by that of Mohler et al [Science, Vol. 198 (1977), p. 849-851] and the cerebellums of male rats weighing an average of 150 g were homogenized in 90 ml of 0.32M sucrose. After centrifugation of the homogenized mixture at 1000 g for 20 minutes at 0° C., the surnageant was centrifuged at 30,000 g for 15 minutes at 0° to 4° C. The culot was suspended in 120 ml of buffer Tris HCl (50 mM-pH of 7.7) and the suspension was centrifuged at 30,000 g for 15 minutes at 0° to 4° C. The resulting culot was suspended in 480 ml of buffer Krebs Tris HCl with a pH of 7.7 and 2 ml of the suspension was incubated at 37° C. for 10 minutes in the presence of 3H dihydroalprenolol at a concentration of 10^-9 M alone and with increasing concentrations of the test compound or with 10^-5 M of non-radioactive propranolol to determine the non-specific fixation.
The incubated suspensions were filtered through Whatman FG/C filter and the filters were rinsed 3 times with 5 ml of buffer Krebs Tris HCl with a pH of 7.7 at 0° C. The radioactivity of the filters was measured by liquid scintillation and the affinity of the test compounds for β2 -adrenergic receptors relative to propranolol as a standard was determined similar as to Test D. The results are reported in Table VII.

mice = experiment: Acute toxicity (DL0, oral); assay type: in vivo, mouse; parameters: unit not given here
[3] = system: carotidien arterial pressure in rats; experiment: Hypotensive activity (carotidien arterial pressure in anesthesized rats); assay type: in vivo, rat (Wistar); details: rat, intravenous
Method: The hypotensive activity was studied on male rats of the Wistar strain weighing about 300 g and anesthesized with 50 mg/kg of nembutal intraveinously. The test products were administered intraveinously by the jugular vein and the carotidien arterial pressure was measured before and after administration of the test compounds. The variations expressed in percentage of arterial pressure after administration with respect to the initial pressure is reported in Table IV.

[4] = 1 min, 1 minute, read-out: % Variation of arterial pressure after administration, 1 minute
[5] = 5 min, 5 minutes, read-out: % Variation of arterial pressure after administration, 5 minutes
[6] = 10 min, 10 minutes, read-out: % Variation of arterial pressure after administration, 10 minutes
[7] = 0.5 h, 30 minutes, read-out: % Variation of arterial pressure after administration, 30 minutes

T2 sequence (P10608 whole entry): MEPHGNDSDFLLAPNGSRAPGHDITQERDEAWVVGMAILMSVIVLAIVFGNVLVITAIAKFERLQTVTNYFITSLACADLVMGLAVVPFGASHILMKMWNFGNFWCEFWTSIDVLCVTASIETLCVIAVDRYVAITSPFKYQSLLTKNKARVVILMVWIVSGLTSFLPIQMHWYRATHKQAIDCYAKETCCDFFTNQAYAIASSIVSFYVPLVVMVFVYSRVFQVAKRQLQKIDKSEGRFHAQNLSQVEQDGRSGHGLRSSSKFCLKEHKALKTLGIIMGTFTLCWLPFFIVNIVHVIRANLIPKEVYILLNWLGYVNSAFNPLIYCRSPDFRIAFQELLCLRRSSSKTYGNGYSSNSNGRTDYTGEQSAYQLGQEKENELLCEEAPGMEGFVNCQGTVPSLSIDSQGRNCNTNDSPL
T1 sequence (P18090 whole entry): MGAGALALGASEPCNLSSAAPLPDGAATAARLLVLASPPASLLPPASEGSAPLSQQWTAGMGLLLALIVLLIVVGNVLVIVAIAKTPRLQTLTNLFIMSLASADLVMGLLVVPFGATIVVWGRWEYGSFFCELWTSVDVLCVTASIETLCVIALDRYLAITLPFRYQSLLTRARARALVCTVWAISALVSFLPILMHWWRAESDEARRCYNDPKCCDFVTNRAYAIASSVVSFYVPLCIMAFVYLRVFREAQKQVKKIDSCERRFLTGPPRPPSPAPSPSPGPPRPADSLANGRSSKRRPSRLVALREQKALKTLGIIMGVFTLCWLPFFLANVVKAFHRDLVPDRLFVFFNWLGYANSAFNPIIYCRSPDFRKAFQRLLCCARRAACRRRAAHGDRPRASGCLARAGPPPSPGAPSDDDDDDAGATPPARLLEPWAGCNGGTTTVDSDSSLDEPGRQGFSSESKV

SMILES	IC50 [1] [µM]	change in vivo at 10 mg/kg [2] [%]	% Arl (relative affinity for α1 adrenergic receptors) (α1 adrenergic receptors) [%]	ARL in % (relative affinity for β1 adrenergic receptors) (β1 adrenergic receptors) [%]	ARL in % (relative affinity for β2 adrenergic receptors) (β2 -adrenergic receptors) [%]	DL0 (maximum dose which did not cause any deaths after 8 days) (mice)	change in vivo at 1 mg/kg [3, 4] [%]	change in vivo at 1 mg/kg [3, 5] [%]	change in vivo at 1 mg/kg [3, 6] [%]	change in vivo at 1 mg/kg [3, 7] [%]
C=CCc1ccccc1OCC(O)CN1CCC(c2c[nH]c3ccccc23)CC1 (stereo not drawn) [Example 7, 4-(1H--indol-3-yl)-α-[2-prop-2-enyl)-phenoxymethyl]-piperidine-1-ethanol hydrochloride]	0.32	50	100	3.7	10	> 200	–	–	–	–
O=[N+]([O-])c1ccccc1OCC(O)CN1CCC(c2c[nH]c3ccccc23)CC1 (stereo not drawn) [Example 11, 4-(1H--indol-3-yl)-α-[2-nitrophenoxymethyl]-piperidine-1-ethanol hydrochloride]	4.2	56	77	1.2	–	100	–	–	–	–
OC(COc1cccc2ccccc12)CN1CCC(c2c[nH]c3ccccc23)CC1 (stereo not drawn) [Example 2, 4-(1H-indol-3-yl)-α-[1-naphthyloxymethyl]-piperidine-1-ethanol]	3.5	–	–	0.9	–	> 1000	–	–	–	–
OC(COc1ccccc1Cl)CN1CCC(c2c[nH]c3ccccc23)CC1 (stereo not drawn) [Example 10, 4-(1H--indol-3-yl)-α-[2-chlorophenoxymethyl]-piperidine-1-ethanol hydrochloride]	2	59	–	1.95	–	> 100	-21	-20	-12	-20
OC(COc1ccccc1C1CCCCC1)CN1CCC(c2c[nH]c3ccccc23)CC1 (stereo not drawn) [Example 15, 4-(1H--indol-3-yl)-α-[2-cyclohexyl-phenoxymethyl]-piperidine-1-ethanol hydrochloride]	5	–	–	–	5.4	> 100	–	–	–	–
Cc1ccccc1OCC(O)CN1CCC(c2c[nH]c3ccccc23)CC1 (stereo not drawn) [Example 9, 4-(1H--indol-3-yl)-α-[2-methylphenoxymethyl]-piperidine-1-ethanol hydrochloride]	3.8	48	92	2.55	–	> 100	-21	-9	-25	-20
OC(COc1ccccc1F)CN1CCC(c2c[nH]c3ccccc23)CC1 (stereo not drawn) [Example 12, 4-(1H--indol-3-yl)-α-[2-fluorophenoxymethyl]-piperidine-1-ethanol hydrochloride]	3.2	90	233	1.2	–	80	-27	-14	-27	-24
C#CCc1ccccc1OCC(O)CN1CCC(c2c[nH]c3ccccc23)CC1 (stereo not drawn) [Example 16, 4-(1H--indol-3-yl)-α-[2-(prop-2-ynyl)-phenoxymethyl]-piperidine-1-ethanol hydrochloride]	1.6	71	321	5.8	11	> 100	–	–	–	–
C=CCOc1ccccc1OCC(O)CN1CCC(c2c[nH]c3ccccc23)CC1 (stereo not drawn) [Example 1, 4-(1H-indol-3-yl)-α-[{2-(prop-2-enyloxy)-phenoxy}-methyl]-piperidine-1-ethanol hydrochloride]	4	63	247	7.3	10.5	100	–	–	–	–
Oc1ccccc1OCC(O)CN1CCC(c2c[nH]c3ccccc23)CC1 (stereo not drawn) [Example 13, 4-(1H--indol-3-yl)-α-[2-hydroxy-phenoxymethyl]-piperidine-1-ethanol hydrochloride]	4.5	112	293	1.1	–	> 100	–	–	–	–
